Measurements published in the NIST ThermoML archive (doi:10.1016/j.jct.2005.01.017).

Assay: xn = mol fraction of the nth substance listed
Details: 101 kPa, Liquid

CC1COC(=O)O1 (stereo not drawn) [4-methyl-1,3-dioxolan-2-one] + Cc1cccc(C)c1
Details	mass density [kg/m3]
293.15 K, x2 = 0	1200.25
293.15 K, x2 = 0.0576	1173.76
293.15 K, x2 = 0.1263	1143.64
293.15 K, x2 = 0.1735	1123.83
293.15 K, x2 = 0.2267	1102.36
293.15 K, x2 = 0.2867	1079.14
293.15 K, x2 = 0.3548	1054
293.15 K, x2 = 0.4243	1029.6
293.15 K, x2 = 0.4671	1015.15
293.15 K, x2 = 0.5341	993.4
293.15 K, x2 = 0.5811	978.7
293.15 K, x2 = 0.6532	957.01
293.15 K, x2 = 0.7213	937.38
293.15 K, x2 = 0.7831	920.23
293.15 K, x2 = 0.8421	904.39
293.15 K, x2 = 0.9212	883.89
303.15 K, x2 = 0	1180.56
303.15 K, x2 = 0.0476	1159.4
303.15 K, x2 = 0.1178	1129.53
303.15 K, x2 = 0.1822	1103.48
303.15 K, x2 = 0.2248	1086.93
303.15 K, x2 = 0.2978	1059.75
303.15 K, x2 = 0.3681	1034.91
303.15 K, x2 = 0.4348	1012.48
303.15 K, x2 = 0.5038	990.33
303.15 K, x2 = 0.5598	973.11
303.15 K, x2 = 0.6139	957.05
303.15 K, x2 = 0.6738	939.89
303.15 K, x2 = 0.7355	922.85
303.15 K, x2 = 0.8021	905.11
303.15 K, x2 = 0.8837	884.19
303.15 K, x2 = 0.9475	868.42
313.15 K, x2 = 0	1161.28
313.15 K, x2 = 0.0564	1137.19
313.15 K, x2 = 0.1291	1107.58
313.15 K, x2 = 0.1781	1088.5
313.15 K, x2 = 0.2378	1066.16
313.15 K, x2 = 0.3021	1043.18
313.15 K, x2 = 0.3614	1022.91
313.15 K, x2 = 0.4243	1002.32
313.15 K, x2 = 0.4861	982.96
313.15 K, x2 = 0.5349	968.22
313.15 K, x2 = 0.5924	951.44
313.15 K, x2 = 0.6521	934.66
313.15 K, x2 = 0.7134	918.04
313.15 K, x2 = 0.7634	904.91
313.15 K, x2 = 0.8325	887.34
313.15 K, x2 = 0.9334	862.75
323.15 K, x2 = 0	1142.43
323.15 K, x2 = 0.0525	1120.74
323.15 K, x2 = 0.1203	1093.93
323.15 K, x2 = 0.1832	1070.24
323.15 K, x2 = 0.2498	1046.31
323.15 K, x2 = 0.3103	1025.54
323.15 K, x2 = 0.3667	1006.98
323.15 K, x2 = 0.4327	986.16
323.15 K, x2 = 0.4962	967.01
323.15 K, x2 = 0.5587	948.93
323.15 K, x2 = 0.6148	933.3
323.15 K, x2 = 0.6813	915.46
323.15 K, x2 = 0.7539	896.75
323.15 K, x2 = 0.8013	884.94
323.15 K, x2 = 0.8625	870.1
323.15 K, x2 = 0.9346	853.17
333.15 K, x2 = 0	1123.99
333.15 K, x2 = 0.0478	1104.87
333.15 K, x2 = 0.1249	1075.39
333.15 K, x2 = 0.1942	1050.25
333.15 K, x2 = 0.2571	1028.52
333.15 K, x2 = 0.3245	1006.29
333.15 K, x2 = 0.3878	986.36
333.15 K, x2 = 0.4313	973.16
333.15 K, x2 = 0.5138	949.16
333.15 K, x2 = 0.582	930.28
333.15 K, x2 = 0.6842	903.43
333.15 K, x2 = 0.7323	891.34
333.15 K, x2 = 0.7723	881.53
333.15 K, x2 = 0.8248	868.96
333.15 K, x2 = 0.8833	855.34
333.15 K, x2 = 0.9429	841.84
343.15 K, x2 = 0	1105.98
343.15 K, x2 = 0.0634	1081.55
343.15 K, x2 = 0.1278	1057.84
343.15 K, x2 = 0.1798	1039.5
343.15 K, x2 = 0.2348	1020.82
343.15 K, x2 = 0.3013	999.21
343.15 K, x2 = 0.3703	977.83
343.15 K, x2 = 0.4259	961.33
343.15 K, x2 = 0.4829	945.05
343.15 K, x2 = 0.5329	931.26
343.15 K, x2 = 0.5928	915.31
343.15 K, x2 = 0.6528	899.92
343.15 K, x2 = 0.7132	884.96
343.15 K, x2 = 0.7829	868.32
343.15 K, x2 = 0.8532	852.13
343.15 K, x2 = 0.9253	836.07
353.15 K, x2 = 0	1088.38
353.15 K, x2 = 0.0622	1065.11
353.15 K, x2 = 0.1199	1044.44
353.15 K, x2 = 0.1874	1021.32
353.15 K, x2 = 0.2401	1004.03
353.15 K, x2 = 0.3149	980.58
353.15 K, x2 = 0.3871	959.07
353.15 K, x2 = 0.451	940.91
353.15 K, x2 = 0.5249	920.84
353.15 K, x2 = 0.5832	905.67
353.15 K, x2 = 0.6591	886.72
353.15 K, x2 = 0.7249	870.97
353.15 K, x2 = 0.7719	860.05
353.15 K, x2 = 0.8529	841.86
353.15 K, x2 = 0.8941	832.88
353.15 K, x2 = 0.9483	821.31

CC1COC(=O)O1 (stereo not drawn) [4-methyl-1,3-dioxolan-2-one] + Cc1ccccc1C
Details	mass density [kg/m3]
293.15 K, x2 = 0	1200.25
293.15 K, x2 = 0.0538	1176.67
293.15 K, x2 = 0.1287	1145.43
293.15 K, x2 = 0.1843	1123.36
293.15 K, x2 = 0.2358	1103.71
293.15 K, x2 = 0.3149	1074.93
293.15 K, x2 = 0.3559	1060.64
293.15 K, x2 = 0.4247	1037.54
293.15 K, x2 = 0.4792	1020.01
293.15 K, x2 = 0.5345	1002.84
293.15 K, x2 = 0.6031	982.36
293.15 K, x2 = 0.6638	964.97
293.15 K, x2 = 0.7213	949.05
293.15 K, x2 = 0.7832	932.49
293.15 K, x2 = 0.8529	914.51
293.15 K, x2 = 0.9284	895.76
303.15 K, x2 = 0	1180.55
303.15 K, x2 = 0.0613	1155.03
303.15 K, x2 = 0.1273	1128.84
303.15 K, x2 = 0.1732	1111.36
303.15 K, x2 = 0.2583	1080.45
303.15 K, x2 = 0.3341	1054.45
303.15 K, x2 = 0.3619	1045.26
303.15 K, x2 = 0.4282	1024.01
303.15 K, x2 = 0.4911	1004.69
303.15 K, x2 = 0.5538	986.2
303.15 K, x2 = 0.6132	969.33
303.15 K, x2 = 0.6739	952.71
303.15 K, x2 = 0.7428	934.53
303.15 K, x2 = 0.8023	919.3
303.15 K, x2 = 0.8631	904.39
303.15 K, x2 = 0.9347	887.3
313.15 K, x2 = 0	1161.28
313.15 K, x2 = 0.0643	1135.09
313.15 K, x2 = 0.1138	1115.77
313.15 K, x2 = 0.1729	1093.62
313.15 K, x2 = 0.2483	1066.72
313.15 K, x2 = 0.3248	1040.87
313.15 K, x2 = 0.3958	1018.07
313.15 K, x2 = 0.4587	998.77
313.15 K, x2 = 0.518	981.29
313.15 K, x2 = 0.5628	968.51
313.15 K, x2 = 0.6345	948.78
313.15 K, x2 = 0.6948	932.83
313.15 K, x2 = 0.7539	917.73
313.15 K, x2 = 0.8039	905.34
313.15 K, x2 = 0.8621	891.32
313.15 K, x2 = 0.9357	874.17
323.15 K, x2 = 0	1142.43
323.15 K, x2 = 0.0527	1120.67
323.15 K, x2 = 0.1328	1089.28
323.15 K, x2 = 0.1842	1070.13
323.15 K, x2 = 0.2487	1047.11
323.15 K, x2 = 0.3398	1016.41
323.15 K, x2 = 0.3781	1004.09
323.15 K, x2 = 0.4487	982.22
323.15 K, x2 = 0.5031	966.07
323.15 K, x2 = 0.5529	951.78
323.15 K, x2 = 0.6249	931.92
323.15 K, x2 = 0.6843	916.18
323.15 K, x2 = 0.7451	900.64
323.15 K, x2 = 0.8146	883.52
323.15 K, x2 = 0.8702	870.29
323.15 K, x2 = 0.9429	853.56
333.15 K, x2 = 0	1123.99
333.15 K, x2 = 0.0578	1099.25
333.15 K, x2 = 0.1298	1070.06
333.15 K, x2 = 0.1844	1049.03
333.15 K, x2 = 0.2358	1030.04
333.15 K, x2 = 0.3139	1002.61
333.15 K, x2 = 0.3847	979.1
333.15 K, x2 = 0.4412	961.2
333.15 K, x2 = 0.5055	941.69
333.15 K, x2 = 0.5572	926.61
333.15 K, x2 = 0.6148	910.43
333.15 K, x2 = 0.6627	897.43
333.15 K, x2 = 0.7365	878.16
333.15 K, x2 = 0.7947	863.56
333.15 K, x2 = 0.8634	846.95
333.15 K, x2 = 0.9354	830.22
343.15 K, x2 = 0	1105.98
343.15 K, x2 = 0.0527	1081.81
343.15 K, x2 = 0.1278	1049.31
343.15 K, x2 = 0.1782	1028.67
343.15 K, x2 = 0.2476	1001.67
343.15 K, x2 = 0.3279	972.32
343.15 K, x2 = 0.3841	952.89
343.15 K, x2 = 0.4529	930.23
343.15 K, x2 = 0.5139	911.13
343.15 K, x2 = 0.5732	893.36
343.15 K, x2 = 0.6241	878.7
343.15 K, x2 = 0.6742	864.77
343.15 K, x2 = 0.7246	851.23
343.15 K, x2 = 0.7726	838.75
343.15 K, x2 = 0.8523	818.84
343.15 K, x2 = 0.9274	800.96
353.15 K, x2 = 0	1088.38
353.15 K, x2 = 0.0639	1056.4
353.15 K, x2 = 0.1128	1033.26
353.15 K, x2 = 0.1832	1001.84
353.15 K, x2 = 0.2478	974.79
353.15 K, x2 = 0.3255	944.31
353.15 K, x2 = 0.3859	922.03
353.15 K, x2 = 0.4628	895.28
353.15 K, x2 = 0.5248	874.93
353.15 K, x2 = 0.5819	857.07
353.15 K, x2 = 0.6249	844.14
353.15 K, x2 = 0.6829	827.36
353.15 K, x2 = 0.7249	815.64
353.15 K, x2 = 0.7821	800.25
353.15 K, x2 = 0.8698	777.8
